# Assay: xn = mol fraction of the nth substance listed
# Conditions: 100 kPa
smiles,measurement,setting,value
COCCOCCO + CCCC[n+]1ccn(C)c1.O=S(=O)([O-])C(F)(F)F,speed of sound,"298.15 K, x2 = 0",1415.8 m/s
same,speed of sound,"298.15 K, x2 = 0.1",1423.6 m/s
same,speed of sound,"298.15 K, x2 = 0.2056",1420.5 m/s
same,speed of sound,"298.15 K, x2 = 0.3064",1415.5 m/s
same,speed of sound,"298.15 K, x2 = 0.3986",1410.7 m/s
same,speed of sound,"298.15 K, x2 = 0.4904",1406.3 m/s
same,speed of sound,"298.15 K, x2 = 0.6945",1398.8 m/s
same,speed of sound,"298.15 K, x2 = 0.7795",1396.8 m/s
same,speed of sound,"298.15 K, x2 = 0.9015",1394.5 m/s
same,speed of sound,"303.15 K, x2 = 0.1",1408.2 m/s
same,speed of sound,"303.15 K, x2 = 0.2056",1406.1 m/s
same,speed of sound,"303.15 K, x2 = 0.3064",1401.6 m/s
same,speed of sound,"303.15 K, x2 = 0.3986",1397.5 m/s
same,speed of sound,"303.15 K, x2 = 0.5981",1390 m/s
same,speed of sound,"303.15 K, x2 = 0.6945",1386.9 m/s
same,speed of sound,"303.15 K, x2 = 0.9015",1383.3 m/s
same,speed of sound,"308.15 K, x2 = 0.1",1392.4 m/s
same,speed of sound,"308.15 K, x2 = 0.2056",1391.5 m/s
same,speed of sound,"308.15 K, x2 = 0.3064",1387.8 m/s
same,speed of sound,"308.15 K, x2 = 0.3986",1384.4 m/s
same,speed of sound,"308.15 K, x2 = 0.4904",1381 m/s
same,speed of sound,"308.15 K, x2 = 0.5981",1378 m/s
same,speed of sound,"308.15 K, x2 = 0.6945",1375.4 m/s
same,speed of sound,"308.15 K, x2 = 0.7795",1374 m/s
same,speed of sound,"308.15 K, x2 = 0.9015",1372 m/s
same,speed of sound,"313.15 K, x2 = 0",1366.4 m/s
same,speed of sound,"313.15 K, x2 = 0.1",1376.8 m/s
same,speed of sound,"313.15 K, x2 = 0.2056",1376.9 m/s
same,speed of sound,"313.15 K, x2 = 0.3986",1371.3 m/s
same,speed of sound,"313.15 K, x2 = 0.4904",1368.4 m/s
same,speed of sound,"313.15 K, x2 = 0.7795",1362.6 m/s
same,speed of sound,"313.15 K, x2 = 0.9015",1360.9 m/s
same,speed of sound,"318.15 K, x2 = 0.4904",1356 m/s
same,speed of sound,"318.15 K, x2 = 0.5981",1354 m/s
same,speed of sound,"318.15 K, x2 = 0.6945",1352.2 m/s
same,speed of sound,"318.15 K, x2 = 0.7795",1351.2 m/s
same,speed of sound,"318.15 K, x2 = 0.9015",1349.9 m/s
same,speed of sound,"323.15 K, x2 = 0",1333.4 m/s
same,speed of sound,"323.15 K, x2 = 0.1",1345.6 m/s
same,speed of sound,"323.15 K, x2 = 0.2056",1348 m/s
same,speed of sound,"323.15 K, x2 = 0.3064",1346.9 m/s
same,speed of sound,"323.15 K, x2 = 0.3986",1345.5 m/s
same,speed of sound,"323.15 K, x2 = 0.4904",1343.6 m/s
same,speed of sound,"323.15 K, x2 = 0.6945",1340.7 m/s
same,speed of sound,"323.15 K, x2 = 0.9015",1338.9 m/s
CCCC[n+]1ccn(C)c1.O=S(=O)([O-])C(F)(F)F + COCCOCCO,speed of sound,"298.15 K, x1 = 1",1392.8 m/s
same,speed of sound,"308.15 K, x1 = 1",1370.6 m/s
same,speed of sound,"313.15 K, x1 = 1",1359.6 m/s
